According to patent US10253052B2, “HBED-bisphosphonates, radiometal conjugates and their use as theranostic agents” (Five Eleven Pharma Inc., priority 2015, dated 2019):

Key:
[1] = In vivo biodistribution in mice; parameters: species or system normal CD-1 male mice; settings: iv
Method: Biodistribution experiments were performed by intravenously administering ^68Ga labeled 1a-h, 2, 3, BPAMD, and [^18F]NaF into normal, healthy male CD-1 mice (25-30 g). The injection activity was 20-30 μCi/animal. […] Organs of interest were harvested, weighed, and counts of radioactivity were measured by a gamma counter. The biodistribution of each sample was calculated as a percentage of the injected dose per gram of wet tissue weight (% ID/g). Tibia and femur bones were harvested and counted as bone samples.

[2] = In vitro binding to hydroxyapatite; settings: 20 mg hydroxyapatite in saline, 10 min at room temperature
Method: Hydroxyapatite (20 mg, Sigma-Aldrich, reagent grade powder) was incubated in isotonic saline (1 mL) for 24 h. Subsequently, either ^68Ga labeled 1a-h, 2, 3, BPAMD, or [^18F]NaF (1 μCi) was added to the hydroxyapatite suspension. After vortexing for 10 seconds, the suspension was incubated for 10 min at room temperature. The samples were then centrifuged at 10,000 rpm for 3 min and the supernatant was removed. The hydroxyapatite fraction was washed twice with saline (1 mL). Radioactivity in the combined supernatants and the hydroxyapatite fraction was measured using a gamma counter. The proportion of the ^68Ga complex binding to hydroxyapatite was determined as percent of ^68Ga absorbed to hydroxyapatite.

For `O=C([O-])CN(CCN(CC(=O)[O-])Cc1cc(CCC(=O)NC(P(=O)(O)O)P(=O)(O)O)ccc1[O-])Cc1cc(CCC(=O)NC2C(O)OC(CO)C(O)C2O)ccc1[O-].[68Ga+3]` (centres unmarked) [[^68Ga]1b], the “bone to blood ratio” value ([1]; 2 min) was 0.9, the “bone to muscle ratio” value ([1]; 2 min) was 4.7 and the “Biodistribution: Blood” value ([1]; 2 min post injection) was 9.22 ± 0.83 % dose/g. For the same molecule, the “Biodistribution: Bone” value ([1]; 2 min post injection) was 8.34 ± 0.88 % dose/g, the “Biodistribution: Brain” value ([1]; 2 min post injection) was 0.20 ± 0.04 % dose/g and the “Biodistribution: Heart” value ([1]; 2 min post injection) was 3.01 ± 0.23 % dose/g. For the same molecule, the “Biodistribution: Kidney” value ([1]; 2 min post injection) was 18.5 ± 2.45 % dose/g, the “Biodistribution: Liver” value ([1]; 2 min post injection) was 2.58 ± 0.22 % dose/g and the “Biodistribution: Lung” value ([1]; 2 min post injection) was 5.11 ± 0.28 % dose/g. For the same molecule, the “Biodistribution: Muscle” value ([1]; 2 min post injection) was 1.79 ± 0.28 % dose/g, the “Biodistribution: Pancreas” value ([1]; 2 min post injection) was 1.51 ± 0.06 % dose/g and the “Biodistribution: Skin” value ([1]; 2 min post injection) was 2.55 ± 0.58 % dose/g. The “Biodistribution: Spleen” value ([1]; 2 min post injection) was 2.03 ± 0.13 % dose/g, the “bone to blood ratio” value ([1]; 30 min) was 20 and the “bone to muscle ratio” value ([1]; 30 min) was 68. The “Biodistribution: Blood” value ([1]; 30 min (0.5 hr) post injection) was 0.83 ± 0.04 % dose/g, the “Biodistribution: Bone” value ([1]; 30 min (0.5 hr) post injection) was 16.6 ± 1.37 % dose/g and the “Biodistribution: Brain” value ([1]; 30 min (0.5 hr) post injection) was 0.03 ± 0.01 % dose/g. The “Biodistribution: Heart” value ([1]; 30 min (0.5 hr) post injection) was 0.62 ± 0.04 % dose/g, the “Biodistribution: Kidney” value ([1]; 30 min (0.5 hr) post injection) was 3.21 ± 1.59 % dose/g and the “Biodistribution: Liver” value ([1]; 30 min (0.5 hr) post injection) was 1.20 ± 0.10 % dose/g. The “Biodistribution: Lung” value ([1]; 30 min (0.5 hr) post injection) was 1.31 ± 0.29 % dose/g, the “Biodistribution: Muscle” value ([1]; 30 min (0.5 hr) post injection) was 0.24 ± 0.03 % dose/g and the “Biodistribution: Pancreas” value ([1]; 30 min (0.5 hr) post injection) was 0.24 ± 0.02 % dose/g. For the same molecule, the “Biodistribution: Skin” value ([1]; 30 min (0.5 hr) post injection) was 0.60 ± 0.02 % dose/g, the “Biodistribution: Spleen” value ([1]; 30 min (0.5 hr) post injection) was 0.75 ± 0.22 % dose/g and the “bone to blood ratio” value ([1]; 60 min) was 50. For the same molecule, the “bone to muscle ratio” value ([1]; 60 min) was 147, the “Biodistribution: Blood” value ([1]; 60 min (1 hr) post injection) was 0.39 ± 0.06 % dose/g and the “Biodistribution: Bone” value ([1]; 60 min (1 hr) post injection) was 19.4 ± 2.05 % dose/g. For the same molecule, the “Biodistribution: Brain” value ([1]; 60 min (1 hr) post injection) was 0.02 ± 0.01 % dose/g, the “Biodistribution: Heart” value ([1]; 60 min (1 hr) post injection) was 0.37 ± 0.02 % dose/g and the “Biodistribution: Kidney” value ([1]; 60 min (1 hr) post injection) was 2.65 ± 0.44 % dose/g. The “Biodistribution: Liver” value ([1]; 60 min (1 hr) post injection) was 1.15 ± 0.13 % dose/g, the “Biodistribution: Lung” value ([1]; 60 min (1 hr) post injection) was 0.96 ± 0.05 % dose/g and the “Biodistribution: Muscle” value ([1]; 60 min (1 hr) post injection) was 0.13 ± 0.01 % dose/g. The “Biodistribution: Pancreas” value ([1]; 60 min (1 hr) post injection) was 0.11 ± 0.01 % dose/g, the “Biodistribution: Skin” value ([1]; 60 min (1 hr) post injection) was 0.26 ± 0.04 % dose/g and the “Biodistribution: Spleen” value ([1]; 60 min (1 hr) post injection) was 0.66 ± 0.15 % dose/g. The “bone to blood ratio” value ([1]; 120 min) was 82, the “bone to muscle ratio” value ([1]; 120 min) was 197 and the “Biodistribution: Blood” value ([1]; 120 min post injection) was 0.21 ± 0.06 % dose/g. For the same molecule, the “Biodistribution: Bone” value ([1]; 120 min post injection) was 17.1 ± 3.70 % dose/g, the “Biodistribution: Brain” value ([1]; 120 min post injection) was 0.02 ± 0.01 % dose/g and the “Biodistribution: Heart” value ([1]; 120 min post injection) was 0.28 ± 0.04 % dose/g. For the same molecule, the “Biodistribution: Kidney” value ([1]; 120 min post injection) was 2.71 ± 0.17 % dose/g, the “Biodistribution: Liver” value ([1]; 120 min post injection) was 1.22 ± 0.07 % dose/g and the “Biodistribution: Lung” value ([1]; 120 min post injection) was 0.86 ± 0.03 % dose/g. For the same molecule, the “Biodistribution: Muscle” value ([1]; 120 min post injection) was 0.09 ± 0.01 % dose/g, the “Biodistribution: Pancreas” value ([1]; 120 min post injection) was 0.08 ± 0.01 % dose/g and the “Biodistribution: Skin” value ([1]; 120 min post injection) was 0.18 ± 0.01 % dose/g. The “Biodistribution: Spleen” value ([1]; 120 min post injection) was 0.53 ± 0.04 % dose/g and the “Hydroxyapatite Binding (%)” value [2] was 91.7 ± 5.6%.
